Patent US20230242494A1, “MALONITRILE DERIVATIVES” (Hoffmann-La Roche Inc., priority 2020, published 2023)
pIC50: −log10 of the molar value.

target: T1, human cGAS (residues 161-522) (Homo sapiens, UniProt Q8N884); assay: cGAS Activity Assay—Malachite Green; type: biochemical; conditions: recombinant purified human cGAS 25 nM; 80 μM ATP, 80 μM GTP, 100 nM ISD; 4 hour at RT; phosphate detection by Malachite Green
T1 construct: human cGAS (residues 161-522); made in house
Description: Compounds were tested for cGAS inhibition in a coupled enzymatic assay based on Phosphate detection by Malachite Green. Final assay conditions were 20 mM TRIS pH 7.5 (Applichem), 5 mM MgCl2 (Sigma) and 0.01% BSA (Sigma) supplemented with 80 μM ATP (Sigma), 80 μM GTP (Sigma) and 100 nM Interferon Stimulating DNA (ISD) (Microsynth). Recombinantly expressed purified human cGAS (residues 161-522) was used at 25 nM.
All compounds were prepared as 10 mM stock solutions in DMSO and a 16 pt dilution series in DMSO with a dilution factor of 2.5 was prepared. 1 μL of DMSO dilution series was transferred to 32.3 μL reaction buffer, mixed by pipetting up/down, spun for 1 minute at 3000 rpm and was visually inspected for precipitation. 5 μL of 3-fold enzyme stock solution were transferred to an empty 384-well Black/Clear Flat Bottom Polystyrene NBS (Corning) rows 3-24. Rows 1-2 were filled with assay buffer. Plates were spun 10 seconds at 1000 rpm (164×g). 5 μL of compound intermediate dilution was added and mixed by pipetting up/down to rows 3-24. Rows 1-2 were filled with 3.1% DMSO assay buffer. Plates were spun 10 seconds at 1000 rpm (164×g). 5 μL 3-fold Nucleotide/DNA mix was added to all wells to start the reaction. Plates were spun 10 seconds at 1000 rpm (164×g) and incubated for 4 hour at room temperature (RT) in the dark. 5 μL 4 U/ml PPase (Sigma) were added to all wells. Plates spun 10 seconds at 1000 rpm (164×g). 10 μL BioMol green Solution (Enzo Life Sciences) was added to all wells. Plates spun 10 seconds at 1000 rpm (164×g) and incubated 30 minutes at RT in the dark. Absorbance data was collected 620 nm on an EnVision Multilable Reader (Perkin Elmer) and the following measurement settings were used: excitation filter photometric was 620 nm; excitation from the top; measurement height was 1 mm; number of flashes was 30; number of flashes integrated was 1.
All plates are checked for abnormalities and outliers in the Blank Control (no protein, row 1) and the Neutral Control (no compound, row 2) are excluded using the 3*SD rule. Data was normalized to 0 and 100% by Blank and Neutral Control and each curve was fitted and judged using the 4 parameter logistic equation to determine the IC50 for cGAS inhibition.
Table 13 provides IC50 values (μM) for cGAS inhibition obtained for particular examples of the present invention as measured by the above-described assay.

T1 sequence (Q8N884 161-522): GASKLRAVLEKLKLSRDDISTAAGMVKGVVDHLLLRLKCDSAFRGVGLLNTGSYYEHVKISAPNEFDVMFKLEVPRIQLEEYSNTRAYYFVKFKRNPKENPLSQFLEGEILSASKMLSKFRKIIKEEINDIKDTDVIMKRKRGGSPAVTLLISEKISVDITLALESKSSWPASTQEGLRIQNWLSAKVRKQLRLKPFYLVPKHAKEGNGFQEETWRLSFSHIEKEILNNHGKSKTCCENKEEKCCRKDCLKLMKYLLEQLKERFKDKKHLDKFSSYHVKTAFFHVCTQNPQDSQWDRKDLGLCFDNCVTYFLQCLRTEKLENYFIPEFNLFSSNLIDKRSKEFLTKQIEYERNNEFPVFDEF

SMILES	pIC50
Cc1oncc1/C(O)=C(\C#N)C(=O)Nc1cccc(-c2ccccc2)c1 [Example 51, (Z)-2-cyano-3-hydroxy-3-(5-methylisoxazol-4-yl)-N-(3-phenylphenyl) prop-2-enamide]	5.70
Cc1oncc1/C(O)=C(\C#N)C(=O)Nc1cccc(Oc2ccccc2)c1 [Example 52, (Z)-2-cyano-3-hydroxy-3-(5-methylisoxazol-4-yl)-N-(3-phenoxyphenyl)acrylamide]	5.76
CCN(CC)C(=O)CNS(=O)(=O)c1ccc(NC(=O)/C(C#N)=C(\O)c2cnoc2C)cc1 [Example 53, (Z)-2-cyano-N-(4-(N-(2-(diethylamino)-2-oxoethyl)sulfamoyl)phenyl)-3-hydroxy-3-(5-methylisoxazol-4-yl)acrylamide]	6.52
Cc1oncc1/C(O)=C(\C#N)C(=O)Nc1ccc(S(=O)(=O)Nc2ccccc2)cc1 [Example 54, (Z)-2-cyano-3-hydroxy-3-(5-methylisoxazol-4-yl)-N-(4-(N-phenylsulfamoyl)phenyl) acrylamide]	6.66
Cc1oncc1/C(O)=C(\C#N)C(=O)Nc1ccc(Sc2ccccc2)cc1 [Example 55, (Z)-2-cyano-3-hydroxy-3-(5-methylisoxazol-4-yl)-N-(4-(phenylthio)phenyl) acrylamide]	5.69
Cc1oncc1/C(O)=C(\C#N)C(=O)Nc1ccc(C(F)(F)F)cc1Cl [Example 56, (Z)-N-(2-chloro-4-(trifluoromethyl)phenyl)-2-cyano-3-hydroxy-3-(5-methylisoxazol-4-yl)acrylamide]	6.13
Cc1oncc1/C(O)=C(\C#N)C(=O)Nc1ccc(S(=O)(=O)Nc2ccc(C#N)cc2)cc1 [Example 57, (Z)-2-cyano-N-(4-(N-(4-cyanophenyl)sulfamoyl)phenyl)-3-hydroxy-3-(5-methylisoxazol-4-yl)acrylamide]	6.54
Cc1oncc1C(=O)N(c1ccc(C#N)cc1)S(=O)(=O)c1ccc(NC(=O)/C(C#N)=C(\O)c2cnoc2C)cc1 [Example 58, (Z)-N-((4-(2-cyano-3-hydroxy-3-(5-methylisoxazol-4-yl)acrylamido)phenyl)sulfonyl)-N-(4-cyanophenyl)-5-methylisoxazole-4-carboxamide]	6.48
Cc1noc(C)c1NS(=O)(=O)c1ccc(NC(=O)/C(C#N)=C(\O)c2cnoc2C)cc1 [Example 59, (Z)-2-cyano-N-(4-(N-(3,5-dimethylisoxazol-4-yl)sulfamoyl)phenyl)-3-hydroxy-3-(5-methylisoxazol-4-yl)acrylamide]	6.35
Cc1noc(C)c1N(C(=O)c1cnoc1C)S(=O)(=O)c1ccc(NC(=O)/C(C#N)=C(\O)c2cnoc2C)cc1 [Example 60]	6.28
Cc1oncc1/C(O)=C(\C#N)C(=O)Nc1ccc(S(C)(=O)=O)cc1Cl [Example 61, (Z)-N-(2-chloro-4-methylsulfonyl-phenyl)-2-cyano-3-hydroxy-3-(5-methylisoxazol-4-yl)prop-2-enamide]	6.96
Cc1oncc1/C(O)=C(\C#N)C(=O)Nc1ccc(Oc2ccccc2)cc1 [Example 62, (Z)-2-cyano-3-hydroxy-3-(5-methylisoxazol-4-yl)-N-(4-phenoxyphenyl)acrylamide]	5.81
Cc1oncc1/C(O)=C(\C#N)C(=O)Nc1ccc(Oc2ccc(Cl)cc2)cc1 [Example 63, (Z)-N-(4-(4-chlorophenoxy)phenyl)-2-cyano-3-hydroxy-3-(5-methylisoxazol-4-yl)acrylamide]	5.46
Cc1oncc1/C(O)=C(\C#N)C(=O)Nc1ccc(-c2ccccc2)cc1 [Example 64, (Z)-2-cyano-3-hydroxy-3-(5-methylisoxazol-4-yl)-N-(4-phenylphenyl)-prop-2-enamide]	5.76
Cc1oncc1/C(O)=C(\C#N)C(=O)Nc1ccc(C(F)(F)F)c(Cl)c1 [Example 65, (Z)-N-(3-chloro-4-(trifluoromethyl)phenyl)-2-cyano-3-hydroxy-3-(5-methylisoxazol-4-yl)acrylamide]	5.78
Cc1oncc1/C(O)=C(\C#N)C(=O)Nc1ccc(C(F)(F)F)cn1 [Example 66, (Z)-2-cyano-3-hydroxy-3-(5-methylisoxazol-4-yl)-N-(5-(trifluoromethyl)pyridin-2-yl)acrylamide]	6.31
Cc1oncc1/C(O)=C(\C#N)C(=O)Nc1ccc(C(=O)Nc2ccccc2)cc1 [Example 67, (Z)-4-(2-cyano-3-hydroxy-3-(5-methylisoxazol-4-yl)acrylamido)-N-phenylbenzamide]	6.38

SMILES	pIC50
Cc1oncc1/C(O)=C(\C#N)C(=O)Nc1nccc(-c2ccccc2)n1 [Example 68, (Z)-2-cyano-3-hydroxy-3-(5-methylisoxazol-4-yl)-N-(4-phenylpyrimidin-2-yl)acrylamide]	6.68
Cc1oncc1/C(O)=C(\C#N)C(=O)Nc1cccc(C(=O)Nc2ccccc2)c1 [Example 69, (Z)-3-(2-cyano-3-hydroxy-3-(5-methylisoxazol-4-yl)acrylamido)-N-phenylbenzamide]	5.70
Cc1oncc1/C(O)=C(\C#N)C(=O)Nc1ccc(C(=O)N[C@H]2CCN(Cc3ccccc3)C2)cc1 [Example 70, (S,Z)-N-(1-benzylpyrrolidin-3-yl)-4-(2-cyano-3-hydroxy-3-(5-methylisoxazol-4-yl)acrylamido)benzamide]	6.00
Cc1oncc1/C(O)=C(\C#N)C(=O)Nc1cccc(NC(=O)c2ccccc2)c1 [Example 71, (Z)-N-(3-(2-cyano-3-hydroxy-3-(5-methylisoxazol-4-yl)acrylamido)phenyl) benzamide]	5.87
Cc1oncc1/C(O)=C(\C#N)C(=O)Nc1ccc(C(=O)NCc2ccccc2)cc1 [Example 72, (Z)-N-benzyl-4-(2-cyano-3-hydroxy-3-(5-methylisoxazol-4-yl)acrylamido)benzamide]	6.17
Cc1oncc1/C(O)=C(\C#N)C(=O)Nc1ncc(OC2CCCCC2)cn1 [Example 73, (Z)-2-cyano-N-(5-(cyclohexyloxy)pyrimidin-2-yl)-3-hydroxy-3-(5-methylisoxazol-4-yl)acrylamide]	6.85
Cc1oncc1/C(O)=C(\C#N)C(=O)Nc1ccc(Cc2ccccc2)cc1 [Example 74, (Z)-N-(4-benzylphenyl)-2-cyano-3-hydroxy-3-(5-methylisoxazol-4-yl)acrylamide]	5.82
Cc1cc(NC(=O)/C(C#N)=C(\O)c2cnoc2C)ccc1C(F)(F)F [Example 75, (Z)-2-cyano-3-hydroxy-N-(3-methyl-4-(trifluoromethyl)phenyl)-3-(5-methylisoxazol-4-yl)acrylamide]	5.72
COc1cc(NC(=O)/C(C#N)=C(\O)c2cnoc2C)ccc1C(F)(F)F [Example 76, (Z)-2-cyano-3-hydroxy-N-(3-methoxy-4-(trifluoromethyl)phenyl)-3-(5-methylisoxazol-4-yl)acrylamide]	5.35
Cc1oncc1/C(O)=C(\C#N)C(=O)Nc1ccc(C(=O)N(C)CC2CCCCC2)c(Cl)c1 [Example 77, (Z)-2-chloro-4-(2-cyano-3-hydroxy-3-(5-methylisoxazol-4-yl)acrylamido)-N-(cyclohexylmethyl)-N-methylbenzamide]	5.60
Cc1oncc1/C(O)=C(\C#N)C(=O)Nc1ccc(C(F)(F)F)c(C#N)c1 [Example 78, (Z)-2-cyano-N-(3-cyano-4-(trifluoromethyl)phenyl)-3-hydroxy-3-(5-methylisoxazol-4-yl)acrylamide]	5.79
Cc1oncc1/C(O)=C(\C#N)C(=O)Nc1ncc(C2CCCCC2)cn1 [Example 79, (Z)-2-cyano-N-(5-cyclohexylpyrimidin-2-yl)-3-hydroxy-3-(5-methylisoxazol-4-yl)acrylamide]	6.72
COc1ccc(-c2cnc(NC(=O)/C(C#N)=C(\O)c3cnoc3C)nc2)cc1 [Example 80, (Z)-2-cyano-3-hydroxy-N-(5-(4-methoxyphenyl)pyrimidin-2-yl)-3-(5-methylisoxazol-4-yl)acrylamide]	6.21
Cc1oncc1/C(O)=C(\C#N)C(=O)Nc1ncc(-c2ccccc2)cn1 [Example 81, (Z)-2-cyano-3-hydroxy-3-(5-methylisoxazol-4-yl)-N-(5-phenylpyrimidin-2-yl)acrylamide]	6.17
Cc1oncc1/C(O)=C(\C#N)C(=O)Nc1ncc(Oc2ccccc2)cn1 [Example 82, (Z)-2-cyano-3-hydroxy-3-(5-methylisoxazol-4-yl)-N-(5-phenoxypyrimidin-2-yl)acrylamide]	6.52
Cc1oncc1/C(O)=C(\C#N)C(=O)Nc1ccc(Oc2ccccc2)cn1 [Example 83, (Z)-2-cyano-3-hydroxy-3-(5-methylisoxazol-4-yl)-N-(5-phenoxypyridin-2-yl)acrylamide]	5.99
